The text below walks through data of patent US20090257975A1, “Solid and Semi-Solid Polymeric Ionic Conjugates” (Pfizer Inc, priority 2002, published 2009).

Structures are written as SMILES. Values after ≈ are worked out from the molar mass of the structure shown. Structures can show the parent of a compound that is named as a salt.

A short description of this series: Solubility determination of ziprasidone in pH 7.4 PBS (shaken vials, HPLC). The class given is physicochemical. The conditions noted are these: concentration of ziprasidone in solution. The protocol:
The following samples were evaluated for solubility: • 1. Ziprasidone-polymer ionic conjugate FIVE (40% ziprasidone, 60% polymer composed of Lactide/Glycolide/Malic acid at molar ratios of 4:1:0.65M) • 2. Ziprasidone-polymer ionic conjugate in gel former (Solution of Conjugate FIVE in a typical gel former, The conjugate was dissolved in a mixture (1:1 by weight) with a mixture of two gel formers made individually of PEG-400 grafted with Trimethylene carbonate/Caprolactone/Glycolide and PEG-400 grafted with Lactide/Glycolide • 3. Ziprasidone mesylate salt • 4. Ziprasidone free base
Excess of each of the above sample were placed in a screw-cap vial with 2 ml of pH 7.4, PBS (Dulbecco's Phosphate-Buffered Saline) solution, and the vials were shaken continuously for 7 days. Ziprasidone free base and its mesylate salt were used as controls. The concentration of ziprasidone in solution was determined at 15 minutes, 6 hours, 24 hours, and 7 days. The HPLC samples were prepared by filtering each suspension through a 0.22-μm syringe filter without any additional dilutions

For the compound `O=C1Cc2cc(CCN3CCN(c4nsc5ccccc45)CC3)c(Cl)cc2N1` [Ziprasidone Free Base, 5-[2-[4-(1,2-benzisothiazol-3-yl)-1-piperazinyl]ethyl]-6-chloro-1,3-dihydro-2H-indol-2-one], the solubility (commonly the concentration that dissolves in the medium under given conditions) at 6 h (Dulbecco's phosphate-buffered saline (PBS), aqueous buffer, thermodynamic from solid, time point 6 hours) was 0.2 µg/mL (≈ 0.484 µM). Besides, the Solubility (in general, the dissolved amount per volume that the medium holds) by setting is: (time point 15 minutes) “Below”; (time point 7 days) “Below”.

In turn, `O=C1Cc2cc(CCN3CCN(c4nsc5ccccc45)CC3)c(Cl)cc2N1` [Ziprasidone Mesylate] had a solubility at 15 min (Dulbecco's phosphate-buffered saline (PBS), aqueous buffer, thermodynamic from solid, time point 15 minutes) of 1.5 µg/mL. For the same compound, the Solubility is, setting by setting: (time point 6 hours) 1.1 µg/mL; (time point 7 days) 1.3 µg/mL.
